Where “and” joins values, the source holds several entries; their conditions need not be identical. Equal values may be shown once. Toxic doses and inconclusive results are not listed. Rule for the calls: active = survival T/C of 150% or more; inactive = T/C below 125% in these data.
Tested on: P388 leukemia ip, CD2F1 mice, survival T/C
Assay: NCI In Vivo Anticancer Drug Screen. Data for tumor model P388 Leukemia (intraperitoneal) in CD2F1 (CDF1) mice
Details: endpoint: median survival time, higher = longer survival
Summary of the method: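 Mice carrying the transplanted tumor received test compound or vehicle. Survival was recorded in each group, and the value is the treated-group measurement divided by that of the vehicle-treated control group.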

[1] = dose: 50.0 mg/kg/injection, schedule: Q01DX005 (ip), vehicle: Klucel (hydroxypropylcellulose) (HPC)
[2] = dose: 100.0 mg/kg/injection, schedule: Q01DX005 (ip), vehicle: Klucel (hydroxypropylcellulose) (HPC)
[3] = dose: 6.25 mg/kg/injection, schedule: Q01DX009 (ip), vehicle: saline
[4] = dose: 12.5 mg/kg/injection, schedule: Q01DX009 (ip), vehicle: saline
[5] = dose: 25.0 mg/kg/injection, schedule: Q01DX009 (ip), vehicle: saline with Tween-80
[6] = dose: 25.0 mg/kg/injection, schedule: Q01DX009 (ip), vehicle: saline
[7] = dose: 100.0 mg/kg/injection, schedule: Q01DX009 (ip), vehicle: saline with Tween-80
[8] = dose: 50.0 mg/kg/injection, schedule: Q01DX009 (ip), vehicle: Klucel (hydroxypropylcellulose) (HPC)
[9] = dose: 100.0 mg/kg/injection, schedule: Q01DX009 (ip), vehicle: Klucel (hydroxypropylcellulose) (HPC)
[10] = dose: 200.0 mg/kg/injection, schedule: Q01DX009 (ip), vehicle: Klucel (hydroxypropylcellulose) (HPC)
[11] = dose: 50.0 mg/kg/injection, schedule: Q01DX009 (ip), vehicle: saline with Tween-80
[12] = dose: 200.0 mg/kg/injection, schedule: Q01DX009 (ip), vehicle: saline with Tween-80
[13] = dose: 60.0 mg/kg/injection, schedule: Q01DX005 (ip), vehicle: saline with Tween-80
[14] = dose: 120.0 mg/kg/injection, schedule: Q01DX005 (ip), vehicle: saline with Tween-80
[15] = dose: 240.0 mg/kg/injection, schedule: Q01DX005 (ip), vehicle: saline with Tween-80

Measured: T/C

C=C(C)/C=N/O
inactive: [1] 113 % of control | [2] 104 % of control | dose: 200.0 mg/kg/injection, schedule: Q01DX005 (ip), vehicle: Klucel (hydroxypropylcellulose) (HPC) 106 % of control

N=C(N)c1ccc(OCCCOc2ccc(C(=N)N)cc2)cc1
inactive: dose: 6.25 mg/kg/injection, schedule: Q01DX005 (ip), vehicle: saline 108 % of control | dose: 12.5 mg/kg/injection, schedule: Q01DX005 (ip), vehicle: saline 117 % of control | dose: 25.0 mg/kg/injection, schedule: Q01DX005 (ip), vehicle: saline 115 % of control

Nc1ccc2nc(N)sc2c1
inactive: dose: 50.0 mg/kg/injection, schedule: Q01DX009 (ip), vehicle: saline 100 % of control | dose: 100.0 mg/kg/injection, schedule: Q01DX009 (ip), vehicle: saline 93 % of control | dose: 200.0 mg/kg/injection, schedule: Q01DX009 (ip), vehicle: saline 101 % of control

CCCCN(CCCC)CCCC(C(C)=O)C(=O)OCC (stereo not drawn)
inactive: [1] 102 % of control | [2] 104 % of control

c1ccc(-c2n[nH]c3ccccc23)cc1
inactive: dose: 25.0 mg/kg/injection, schedule: Q04DX003 (ip), vehicle: saline with Tween-80 101 % of control | dose: 50.0 mg/kg/injection, schedule: Q04DX003 (ip), vehicle: saline with Tween-80 110 % of control | dose: 100.0 mg/kg/injection, schedule: Q04DX003 (ip), vehicle: saline with Tween-80 101 % of control | dose: 200.0 mg/kg/injection, schedule: Q04DX003 (ip), vehicle: saline with Tween-80 99 % of control

CCC(=O)NNc1cccc(Cl)n1
inactive: dose: 50.0 mg/kg/injection, schedule: Q01DX001 (ip), vehicle: Klucel (hydroxypropylcellulose) (HPC) 98 % of control | dose: 100.0 mg/kg/injection, schedule: Q01DX001 (ip), vehicle: Klucel (hydroxypropylcellulose) (HPC) 94 % of control | dose: 200.0 mg/kg/injection, schedule: Q01DX001 (ip), vehicle: Klucel (hydroxypropylcellulose) (HPC) 108 % of control

COc1cc(C[C@H](CO)[C@@H](CO)Cc2ccc3c(c2)OCO3)cc(OC)c1OC
inactive: dose: 6.25 mg/kg/injection, schedule: Q04DX002 (ip), vehicle: saline with Tween-80 95 % of control | dose: 12.5 mg/kg/injection, schedule: Q04DX002 (ip), vehicle: saline with Tween-80 102 % of control | dose: 25.0 mg/kg/injection, schedule: Q04DX002 (ip), vehicle: saline with Tween-80 106 % of control

CCC(O)(C(=O)O)c1cc[n+](Cc2cnc3ccccc3c2)cc1C (stereo not drawn)
inactive: dose: 12.5 mg/kg/injection, schedule: Q01DX005 (ip), vehicle: Klucel (hydroxypropylcellulose) (HPC) 96 % of control | dose: 25.0 mg/kg/injection, schedule: Q01DX005 (ip), vehicle: Klucel (hydroxypropylcellulose) (HPC) 86 % of control | [1] 100 % of control

O=C1COCC(=O)OCCOCCOCCO1
inactive: dose: 100.0 mg/kg/injection, schedule: Q04DX003 (ip), vehicle: Klucel (hydroxypropylcellulose) (HPC) 100 % of control | dose: 200.0 mg/kg/injection, schedule: Q04DX003 (ip), vehicle: Klucel (hydroxypropylcellulose) (HPC) 100 % of control | dose: 400.0 mg/kg/injection, schedule: Q04DX003 (ip), vehicle: Klucel (hydroxypropylcellulose) (HPC) 100 % of control

CC(C)(c1ccccc1)c1cc(CN2CCCCC2)c(O)c(CN2CCCCC2)c1
inactive: dose: 0.78 mg/kg/injection, schedule: Q01DX009 (ip), vehicle: saline 100 % of control and 95 % of control | dose: 1.56 mg/kg/injection, schedule: Q01DX009 (ip), vehicle: saline 104 % of control and 112 % of control | dose: 3.13 mg/kg/injection, schedule: Q01DX009 (ip), vehicle: saline 108 % of control and 113 % of control and 121 % of control | [3] 105 % of control and 90 % of control and 95 % of control | [4] 94 % of control | [5] 91 % of control | [6] 96 % of control | [7] 97 % of control

O=C1C2OC2C(O)(CCN(Cc2ccc3c(c2)OCO3)C(=O)C(F)(F)F)C2OC12 (stereo not drawn)
inactive: dose: 6.25 mg/kg/injection, schedule: Q01DX001 (ip), vehicle: saline 104 % of control | dose: 12.5 mg/kg/injection, schedule: Q01DX001 (ip), vehicle: saline 105 % of control | dose: 25.0 mg/kg/injection, schedule: Q01DX001 (ip), vehicle: saline 106 % of control

CN(C)CCn1c2ccccc2c2cc([N+](=O)[O-])ccc21
inactive: [8] 102 % of control | [9] 105 % of control | [10] 108 % of control

CCOC(=O)C(C#N)C=Nc1cccc(N(C)C)c1 (stereo not drawn)
inactive: [8] 108 % of control | [9] 117 % of control | [10] 104 % of control

C/C(=N/NC(N)=O)c1cccc(/C(C)=N/NC(N)=O)n1.[Cl][Zn][Cl]
inactive: [3] 103 % of control | [4] 102 % of control | [6] 105 % of control

CCOC(=O)C(C)(C)Oc1cccc2c1S(=O)(=O)c1ccccc1-2
inactive: [11] 95 % of control | [7] 93 % of control | [12] 100 % of control

[N-]=[N+]=NC(=O)c1ccccn1
inactive: [5] 101 % of control | [11] 113 % of control | [7] 120 % of control

c1ccc(C2(N3CCOCC3)CSC2)cc1
inactive: dose: 100.0 mg/kg/injection, schedule: Q04DX002 (ip), vehicle: saline with Tween-80 95 % of control | dose: 200.0 mg/kg/injection, schedule: Q04DX002 (ip), vehicle: saline with Tween-80 98 % of control | dose: 400.0 mg/kg/injection, schedule: Q04DX002 (ip), vehicle: saline with Tween-80 98 % of control

O=C(NC1CC(c2ccccc2)(c2ccccc2)OC1=O)c1ccccc1 (stereo not drawn)
inactive: [11] 100 % of control | [7] 86 % of control

N#Cc1c(N)nc(N)nc1Nc1ccc(Cl)cc1
inactive: [13] 113 % of control | [14] 110 % of control | [15] 115 % of control

O=C(CCCCCCCCC(=O)Nc1ccccc1)Nc1ccccc1
inactive: dose: 50.0 mg/kg/injection, schedule: Q01DX001 (ip), vehicle: saline with Tween-80 103 % of control | dose: 100.0 mg/kg/injection, schedule: Q01DX001 (ip), vehicle: saline with Tween-80 103 % of control | dose: 200.0 mg/kg/injection, schedule: Q01DX001 (ip), vehicle: saline with Tween-80 100 % of control | dose: 400.0 mg/kg/injection, schedule: Q01DX001 (ip), vehicle: saline with Tween-80 108 % of control

Cc1ccc(Nc2cccc3c2C(=O)c2cccc(Nc4ccc(C)cc4S(=O)(=O)O)c2C3=O)c(S(=O)(=O)O)c1
inactive: [11] 108 % of control | [7] 100 % of control | [12] 101 % of control

CCC(=O)c1ccc(OS(=O)(=O)O)cc1
inactive: [8] 96 % of control | [9] 103 % of control | [10] 99 % of control

COC1=CC(=O)N/C1=C(\OC)c1ccccc1
inactive: [13] 90 % of control | [14] 93 % of control | [15] 99 % of control

CN1CCc2c(c3ccccc3c3ccccc23)C1
inactive: dose: 0.09 mg/kg/injection, schedule: Q01DX009 (ip), vehicle: Klucel (hydroxypropylcellulose) (HPC) 99 % of control | dose: 0.19 mg/kg/injection, schedule: Q01DX009 (ip), vehicle: Klucel (hydroxypropylcellulose) (HPC) 107 % of control | dose: 0.39 mg/kg/injection, schedule: Q01DX009 (ip), vehicle: Klucel (hydroxypropylcellulose) (HPC) 104 % of control | dose: 0.78 mg/kg/injection, schedule: Q01DX009 (ip), vehicle: Klucel (hydroxypropylcellulose) (HPC) 102 % of control | dose: 1.56 mg/kg/injection, schedule: Q01DX009 (ip), vehicle: Klucel (hydroxypropylcellulose) (HPC) 104 % of control and 91 % of control | dose: 3.12 mg/kg/injection, schedule: Q01DX009 (ip), vehicle: Klucel (hydroxypropylcellulose) (HPC) 94 % of control | dose: 6.25 mg/kg/injection, schedule: Q01DX009 (ip), vehicle: Klucel (hydroxypropylcellulose) (HPC) 86 % of control and 96 % of control | dose: 12.5 mg/kg/injection, schedule: Q01DX009 (ip), vehicle: Klucel (hydroxypropylcellulose) (HPC) 104 % of control | dose: 25.0 mg/kg/injection, schedule: Q01DX009 (ip), vehicle: Klucel (hydroxypropylcellulose) (HPC) 113 % of control and 92 % of control | [8] 105 % of control

Cc1cc2cc(O)c3c(=O)c4c(O)cccc4c(=O)c3c2c(=O)c1=O
inactive: dose: 3.12 mg/kg/injection, schedule: Q01DX005 (ip), vehicle: other 101 % of control | dose: 6.25 mg/kg/injection, schedule: Q01DX005 (ip), vehicle: other 107 % of control | dose: 12.5 mg/kg/injection, schedule: Q01DX005 (ip), vehicle: other 100 % of control | dose: 25.0 mg/kg/injection, schedule: Q01DX005 (ip), vehicle: other 104 % of control
